How the values were obtained:
[1] = tested on: normal NK cells expanded with K562-aAPC; assay: drug sensitivity score (DSS) (DSS units); higher = more sensitive; extreme values may be limits of the assay; details: 72 h; IL-2 2.5 ng/mL
Experimental: (§1)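 Drug sensitivity and resistance testing on K562-aAPC-expanded normal NK cells: 5 concentrations (10-fold steps over a 10,000-fold range), 72 h at 37 °C, viability by CellTiter-Glo normalised to DMSO and benzethonium chloride controls; DSS from the fitted curve.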

[2] = tested on: DERL-7 (IL-2 2.5 ng/mL); assay: percent inhibition of viability; higher = more inhibition; details: 72 h
[3] = tested on: normal primary NK cells, pool 1 (3 donors) (IL-2 2.5 ng/mL); assay: as above; details: 72 h
[4] = tested on: NKL (IL-2 2.5 ng/mL); assay: as above; details: 72 h
[5] = tested on: normal primary NK cells, pool 1 (3 donors), resting (IL-2 0 ng/mL); assay: as above; details: 72 h
[6] = tested on: SNK-6 (IL-2 2.5 ng/mL); assay: as above; details: 72 h
[7] = tested on: normal primary NK cells, pool 3 (3 donors) (IL-2 2.5 ng/mL); assay: as above; details: 72 h
[8] = tested on: KAI3 (IL-2 2.5 ng/mL); assay: as above; details: 72 h
[9] = tested on: YT (IL-2 2.5 ng/mL); assay: as above; details: 72 h
[10] = tested on: KHYG-1 (IL-2 2.5 ng/mL); assay: as above; details: 72 h
[11] = tested on: IMC-1 (IL-2 20 ng/mL); assay: as above; details: 72 h
[12] = tested on: NK-YS (IL-2 2.5 ng/mL); assay: as above; details: 72 h
[13] = tested on: normal primary NK cells, pool 2 (3 donors) (IL-2 2.5 ng/mL); assay: as above; details: 72 h
[14] = tested on: NK-92 (IL-2 2.5 ng/mL); assay: as above; details: 72 h
[15] = tested on: normal NK cells expanded with K562-aAPC; assay: as above; details: 72 h, IL-2 2.5 ng/mL
Experimental: as §1

[16] = tested on: DERL-7 (IL-2 2.5 ng/mL); assay: drug sensitivity score (DSS) (DSS units); higher = more sensitive; extreme values may be limits of the assay; details: 72 h
[17] = tested on: normal primary NK cells, pool 1 (3 donors) (IL-2 2.5 ng/mL); assay: as above; details: 72 h
[18] = tested on: NKL (IL-2 2.5 ng/mL); assay: as above; details: 72 h
[19] = tested on: normal primary NK cells, pool 1 (3 donors), resting (IL-2 0 ng/mL); assay: as above; details: 72 h
[20] = tested on: SNK-6 (IL-2 2.5 ng/mL); assay: as above; details: 72 h
[21] = tested on: normal primary NK cells, pool 3 (3 donors) (IL-2 2.5 ng/mL); assay: as above; details: 72 h
[22] = tested on: KAI3 (IL-2 2.5 ng/mL); assay: as above; details: 72 h
[23] = tested on: YT (IL-2 2.5 ng/mL); assay: as above; details: 72 h
[24] = tested on: KHYG-1 (IL-2 2.5 ng/mL); assay: as above; details: 72 h
[25] = tested on: IMC-1 (IL-2 20 ng/mL); assay: as above; details: 72 h
[26] = tested on: NK-YS (IL-2 2.5 ng/mL); assay: as above; details: 72 h
[27] = tested on: normal primary NK cells, pool 2 (3 donors) (IL-2 2.5 ng/mL); assay: as above; details: 72 h
[28] = tested on: NK-92 (IL-2 2.5 ng/mL); assay: as above; details: 72 h

COc1ccc(-c2nc(N3CCOCC3)c3sc(CN(C)c4ncc(C(=O)NO)cn4)cc3n2)cn1 [CUDC-907] (max concentration tested 10000 nM)
Details | drug sensitivity score
[1] | 37.1
[16] | 46.5
[17] | 38
[18] | 43.8
[19] | 38.4
[20] | 37.9
[21] | 36.7
[22] | 43.4
[23] | 34.6
[24] | 44.4
[25] | 35.3
[26] | 37.1
[27] | 37.7
[28] | 42.9

percent inhibition of viability [%]
Details | 1 nM | 10 nM | 100 nM | 1000 nM | 10000 nM
[2] | 23.5 | 99.7 | 100 | 100 | 99.7
[3] | 2.74 | 68.2 | 96.4 | 97.7 | 97.2
[4] | 56.5 | 77 | 103 | 104 | 99.2
[5] | 15.9 | 72.7 | 90.1 | 91 | 91.7
[6] | 0.83 | 63.5 | 99.8 | 100 | 100
[7] | -5.77 | 56.8 | 97.2 | 96.7 | 98.1
[8] | 52.6 | 75.5 | 102 | 104 | 98.9
[9] | 5.94 | 27.4 | 103 | 104 | 99.1
[10] | 16.1 | 94.5 | 103 | 103 | 98.7
[11] | -4.89 | 34.3 | 100 | 101 | 100
[12] | 6.56 | 55.9 | 101 | 103 | 99
[13] | 1.42 | 74.2 | 94.2 | 94 | 94.8
[14] | 23.2 | 83.5 | 102 | 103 | 97
[15] | 10.6 | 55.4 | 100 | 99.9 | 99.9

CCNC(=O)Nc1ccc(-c2nc3c(c(N4CCOC[C@@H]4C)n2)CCN(C2COC2)C3)cc1 [RG-7603] (max concentration tested 2500 nM)
Details | drug sensitivity score
[1] | 2.54
[16] | 8.64
[17] | 2.37
[18] | 7.13
[19] | 0.19
[20] | 4.17
[21] | 0
[22] | 5.07
[23] | 3.15
[24] | 1.86
[25] | 0.89
[26] | 4.64
[27] | 0.33
[28] | 3.67

percent inhibition of viability [%]
Details | 0.25 nM | 2.5 nM | 25 nM | 250 nM | 2500 nM
[2] | -2.9 | 5.17 | 4.85 | 41.4 | 63.4
[3] | -9.72 | -0.76 | 9.2 | 14.6 | 21
[4] | -16.4 | -9.21 | 1.54 | 34.9 | 54.6
[5] | -10.2 | -9.16 | 15.7 | 0.22 | 16
[6] | 15 | 2.98 | -2.03 | 14.2 | 42.2
[7] | -5.74 | -6.13 | -4.3 | -0.62 | 10.1
[8] | -2.16 | 10.2 | 4.9 | 24.3 | 45.1
[9] | -0.19 | -2.47 | -0.44 | 8.66 | 37
[10] | -4.71 | -3.78 | -6.03 | 6.5 | 24.9
[11] | -2.39 | -0.65 | -9.05 | -18.6 | -57.2
[12] | -8.96 | -4.62 | -4.67 | 17.1 | 44.4
[13] | -4.33 | -4.69 | -7.06 | 3.67 | 13.1
[14] | -10.2 | -10.6 | -15.4 | 17.8 | 33.1
[15] | -3.77 | -6.71 | -1.18 | 12.9 | 25.9

Cc1ccc(C(=O)N(CCCN)[C@@H](c2oc3cc(Cl)ccc3c(=O)c2Cc2ccccc2)C(C)C)cc1 (max concentration tested 100 nM)
Details | drug sensitivity score
[1] | 8.92
[16] | 7.54
[17] | 0
[18] | 14.5
[19] | 0
[20] | 15
[21] | 3.16
[22] | 6.54
[23] | 4.68
[24] | 18.2
[25] | 17.9
[26] | 13.7
[27] | 1.26
[28] | 7.14

percent inhibition of viability [%]
Details | 0.01 nM | 0.1 nM | 1 nM | 10 nM | 100 nM
[2] | -6.36 | -10.3 | -3.04 | 12.1 | 100
[3] | -6.46 | -14.6 | 7.89 | 0.13 | 9.64
[4] | 7.05 | -6.08 | 0.2 | 79.2 | 94.4
[5] | -14 | -28.1 | 6.55 | -12.4 | 0.78
[6] | -16.1 | -20.8 | 5.75 | 78 | 91.8
[7] | -4.72 | -7.26 | 16.7 | 13.5 | 15.5
[8] | -6.39 | -3.85 | -7.56 | 25.9 | 57.9
[9] | -0.9 | -3.95 | -3.98 | 6.11 | 67.4
[10] | 2.63 | -2.09 | 3.33 | 98.1 | 108
[11] | -7.61 | -1.73 | 0.06 | 99.8 | 101
[12] | -1.37 | -2.68 | 5 | 71.1 | 80.5
[13] | -6.06 | -2.94 | 7.66 | 13.1 | 9.78
[14] | -6.69 | -0.53 | 4.14 | 12.2 | 92.1
[15] | 0.7 | -0.13 | 0.62 | 47.5 | 60.9

From the supplement of paper PMC5908809
